ChEMBL document CHEMBL1201862, “PubChem BioAssay data set” (2004)
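Exposure lasted 48 hours, with cells grown in 96-well plates and compounds tested at five concentrations. GI50: concentration for 50% inhibition of growth.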 Activity calls are given as the source filed them. Rule as the data show it: active = GI50 up to about 1.1 µM and inactive = higher.

Legend:
Assay in all cases: NCI anticancer screen, dose series, 48 h
U-251 = tested on: U-251
A498 = tested on: A498
UO-31 = tested on: UO-31
K562 = tested on: K562
OVCAR-4 = tested on: OVCAR-4
ACHN = tested on: ACHN
HT-29 = tested on: HT-29
SK-MEL-5 = tested on: SK-MEL-5
CAKI-1 = tested on: CAKI-1
DMS-273 = tested on: DMS-273
RPMI-8226 = tested on: RPMI-8226
SK-MEL-28 = tested on: SK-MEL-28
NCI-H460 = tested on: NCI-H460
Malme-3M = tested on: Malme-3M
HCT-116 = tested on: HCT-116
KM12 = tested on: KM12
SR = tested on: SR
XF498 = tested on: XF498
MDA-MB-231 = tested on: MDA-MB-231
Hs-578T = tested on: Hs-578T

Measured: GI50

CC1(c2cccc3c2C2(O)C=CC4(CCC32)OCCO4)OCCO1 (centres undefined)
inactive: U-251 > 100 µM | A498 > 100 µM | UO-31 > 100 µM | K562 > 100 µM | OVCAR-4 > 100 µM | ACHN > 100 µM | HT-29 > 100 µM | SK-MEL-5 > 100 µM | CAKI-1 > 100 µM | DMS-273 > 100 µM | RPMI-8226 > 100 µM | SK-MEL-28 > 100 µM | NCI-H460 > 100 µM | Malme-3M > 100 µM | HCT-116 > 100 µM | KM12 > 100 µM

CC1(C)OC2OC(/C=C/[N+](=O)[O-])C3OC(C)(C)OC3C2O1 (centres undefined)
inactive: U-251 17.3 µM | A498 20.5 µM | UO-31 20.4 µM | SR 6.7 µM | K562 6.84 µM | OVCAR-4 16.3 µM | ACHN 15.4 µM | HT-29 17.2 µM | SK-MEL-5 16.6 µM | CAKI-1 4.67 µM | DMS-273 17.3 µM | SK-MEL-28 18.2 µM | NCI-H460 15.4 µM | Malme-3M 5.35 µM | HCT-116 9.06 µM | KM12 17.2 µM

CCCCCCCCCCCCCP(=O)(O)O
inactive: U-251 45.2 µM | A498 > 100 µM | UO-31 > 100 µM | OVCAR-4 > 100 µM | ACHN > 100 µM | HT-29 > 100 µM | XF498 > 100 µM | SK-MEL-5 > 100 µM | DMS-273 50.9 µM | SK-MEL-28 > 100 µM | NCI-H460 > 100 µM | Malme-3M > 100 µM | HCT-116 > 100 µM | KM12 > 100 µM

COC(=O)[C@]1(C)CCC[C@]2(C)C3CC4OOC3(C=C4C(C)(C)O)CCC21 (some centres undefined)
inactive: U-251 > 100 µM | A498 24.4 µM | UO-31 > 10 µM | K562 21.9 µM | OVCAR-4 72.9 µM | ACHN 47.8 µM | HT-29 22.6 µM | XF498 20.6 µM | SK-MEL-5 34.6 µM | CAKI-1 64.6 µM | RPMI-8226 16.7 µM | NCI-H460 33.5 µM | Malme-3M > 100 µM | HCT-116 31.8 µM | KM12 42.7 µM

N#CC(C(=N/NC(N)=S)/C(=N/NC(N)=S)C(C#N)c1ccc(Cl)cc1)c1ccc(Cl)cc1 (centres undefined)
inactive: U-251 > 100 µM | A498 > 100 µM | UO-31 > 100 µM | K562 34.9 µM | OVCAR-4 > 100 µM | ACHN > 100 µM | HT-29 > 100 µM | XF498 > 100 µM | SK-MEL-5 78.2 µM | DMS-273 > 100 µM | SK-MEL-28 81.3 µM | NCI-H460 > 100 µM | Malme-3M > 100 µM | HCT-116 > 100 µM | KM12 > 100 µM

O=c1c2cc(Br)ccc2nc(-c2ccccc2)n1NCC1(O)OCC(O)C(O)C1O (centres undefined)
inactive: U-251 > 100 µM | A498 > 100 µM | UO-31 > 100 µM | SR 48.8 µM | K562 > 100 µM | OVCAR-4 61.8 µM | ACHN > 100 µM | HT-29 > 100 µM | SK-MEL-5 > 100 µM | CAKI-1 > 100 µM | DMS-273 > 100 µM | RPMI-8226 > 100 µM | SK-MEL-28 > 100 µM | NCI-H460 > 100 µM | Malme-3M > 100 µM | HCT-116 > 100 µM | KM12 > 100 µM

COC(=O)c1ccccc1CC1Cc2ccc3c(c2C1=O)CCCC3 (centres undefined)
inactive: MDA-MB-231 29.7 µM | U-251 50.6 µM | A498 52.8 µM | UO-31 52.8 µM | SR 14 µM | K562 17 µM | OVCAR-4 23.3 µM | ACHN 48.1 µM | HT-29 20.4 µM | SK-MEL-5 15.5 µM | CAKI-1 24 µM | Hs-578T 60.7 µM | RPMI-8226 19.2 µM | SK-MEL-28 64.9 µM | NCI-H460 68.5 µM | Malme-3M 28.1 µM | HCT-116 29.2 µM | KM12 46.2 µM

CCC1C(c2cc(OC)c(OC)c(OC)c2)c2cc3c(cc2OC1N1CCCC1)OCO3 (centres undefined)
inactive: MDA-MB-231 3.83 µM | U-251 2.56 µM | A498 3.15 µM | UO-31 4.1 µM | SR 1.17 µM | OVCAR-4 12.7 µM | ACHN 4.03 µM | HT-29 1.37 µM | Hs-578T 1.36 µM | RPMI-8226 3.05 µM | SK-MEL-28 8.87 µM | NCI-H460 2.84 µM | Malme-3M 6.98 µM | HCT-116 1.32 µM
active: K562 0.752 µM | SK-MEL-5 0.678 µM | CAKI-1 0.598 µM | KM12 0.743 µM

OCC(O)C(OC1OC(CO)C(O)C(O)C1O)c1nn(-c2ccccc2)c2nc3cc(Cl)c(Cl)cc3cc12 (centres undefined)
inactive: U-251 > 100 µM | A498 > 100 µM | UO-31 > 100 µM | SR > 100 µM | K562 > 100 µM | OVCAR-4 > 100 µM | ACHN > 100 µM | HT-29 > 100 µM | XF498 > 100 µM | RPMI-8226 > 100 µM | SK-MEL-28 > 100 µM | NCI-H460 > 100 µM | Malme-3M > 100 µM | HCT-116 > 100 µM | KM12 45 µM

N#Cc1ccccc1NC(=O)/C(=N\N)C(C(=O)c1ccncc1)C1OC(=O)c2ccccc21 (centres undefined)
inactive: U-251 > 100 µM | UO-31 > 100 µM | SR > 100 µM | K562 > 100 µM | OVCAR-4 > 100 µM | ACHN > 100 µM | HT-29 > 100 µM | XF498 > 100 µM | SK-MEL-5 > 100 µM | RPMI-8226 > 100 µM | SK-MEL-28 > 100 µM | NCI-H460 > 100 µM | Malme-3M > 100 µM | HCT-116 > 100 µM | KM12 > 100 µM

CCC(/C(=N\Nc1c(Cl)cc(Cl)cc1Cl)c1ccccc1)n1ccnc1C (centres undefined)
inactive: U-251 12.8 µM | A498 14.2 µM | UO-31 5.97 µM | K562 5.07 µM | OVCAR-4 10.5 µM | ACHN 5.52 µM | HT-29 8.05 µM | SK-MEL-5 7.91 µM | CAKI-1 11 µM | DMS-273 4.6 µM | RPMI-8226 3.99 µM | SK-MEL-28 14.7 µM | NCI-H460 11 µM | Malme-3M 11.7 µM | HCT-116 7.05 µM | KM12 10.4 µM

CCCCCCCCCCCCN(CC(O)C(O)C(OC1OC(CO)C(O)C(O)C1O)C(O)CO)C(=O)CCCCCCCCCCC (centres undefined)
inactive: MDA-MB-231 22.6 µM | U-251 18.6 µM | A498 24.7 µM | UO-31 21.5 µM | SR 33.1 µM | K562 19 µM | OVCAR-4 21.4 µM | ACHN 16.9 µM | HT-29 19 µM | SK-MEL-5 17.5 µM | CAKI-1 19 µM | Hs-578T 26.3 µM | RPMI-8226 29 µM | SK-MEL-28 17.5 µM | NCI-H460 20.5 µM | Malme-3M 18.5 µM | HCT-116 19.5 µM | KM12 20.2 µM

O=C1OCC2C1C1c3ccccc3C(O)c3ccccc3C21 (centres undefined)
inactive: U-251 > 100 µM | A498 > 100 µM | UO-31 > 100 µM | SR > 100 µM | K562 > 100 µM | OVCAR-4 > 100 µM | ACHN > 100 µM | HT-29 > 100 µM | XF498 > 100 µM | SK-MEL-5 > 100 µM | CAKI-1 > 100 µM | RPMI-8226 > 100 µM | SK-MEL-28 > 100 µM | NCI-H460 > 100 µM | Malme-3M > 100 µM | HCT-116 > 100 µM | KM12 > 100 µM

O=C1OC(OC/C(Br)=C(\Br)COC2OC(=O)C(Cl)=C2Cl)C(Cl)=C1Cl (centres undefined)
inactive: MDA-MB-231 4.74 µM | U-251 4.58 µM | A498 19.5 µM | UO-31 3.18 µM | K562 1.14 µM | OVCAR-4 7.6 µM | ACHN 5.97 µM | HT-29 2.55 µM | SK-MEL-5 8.83 µM | CAKI-1 2.26 µM | Hs-578T 5.57 µM | SK-MEL-28 7.82 µM | NCI-H460 13.2 µM | Malme-3M 2.55 µM | HCT-116 1.86 µM | KM12 15.2 µM
active: SR 0.9 µM | RPMI-8226 1.08 µM

N#C[C@](CO)(NC(=O)OCc1ccccc1)C(F)F
inactive: MDA-MB-231 > 100 µM | U-251 > 100 µM | A498 > 100 µM | UO-31 > 100 µM | SR > 100 µM | K562 > 100 µM | OVCAR-4 > 100 µM | ACHN > 100 µM | HT-29 > 100 µM | SK-MEL-5 > 100 µM | CAKI-1 > 100 µM | Hs-578T > 100 µM | RPMI-8226 > 100 µM | SK-MEL-28 > 100 µM | NCI-H460 > 100 µM | Malme-3M > 100 µM | HCT-116 > 100 µM | KM12 > 100 µM

Nc1ccc(CCN2CCN(CCCc3ccccc3)CC2)cc1
inactive: MDA-MB-231 60.8 µM | U-251 > 100 µM | A498 > 100 µM | UO-31 56.9 µM | SR 27.6 µM | K562 24.2 µM | OVCAR-4 53.1 µM | ACHN > 100 µM | HT-29 16.2 µM | SK-MEL-5 29.6 µM | CAKI-1 > 100 µM | Hs-578T > 100 µM | RPMI-8226 46.7 µM | SK-MEL-28 > 100 µM | NCI-H460 63.4 µM | Malme-3M 38.5 µM | HCT-116 31.9 µM | KM12 82.8 µM
